Data reported in patent publication US20250320397A1, “NON-PFAS REFRIGERANTS AND METHODS OF COOLING ELECTRONICS” (Honeywell International Inc., priority 2024, published 2025).

What was measured:
[1] = Boiling point determination (Example 2); type: physicochemical; details: for Bp: Table 3, approximate physical properties; for BP: Table 5
Method: (§1) The boiling point (“BP”) of HFO-1336pyy and HFO-1336eyc were determined and the results are reported below in Table 5. The dielectric constant (“Dk”) of HFO-1336pyy and HFO-1336eyc(E) were measured, whereas the Dk of HFO*1336eyc (Z) was calculated using the Kirkwood model as described in Harvey, A. H. and Lemmon, E. W., International Journal of Thermophysics, Vol. 26, No. 1, 2005. The measured dielectric property were determined using the Agilent 85070 Dielectric Probe. All measurements were made at ambient pressure and room temperature (approximately 23° C.). Prior to making measurements, the system was calibrated from 1 GHz to 20 GHz with an open circuit, a short circuit, and DI water (@22.4° C.) standard. The accuracy of the probe is given as: Dielectric constant, er′=er′+/−0.05|er*| with er″=er″+/−0.05|er*| and (loss=er″/er′).

[2] = Dielectric constant measured with Agilent 85070 Dielectric Probe (Example 2); type: physicochemical; details: ambient pressure, room temperature (approximately 23° C.); for Dielectric Constant (Dk): Table 3; for Dk: Table 5, probe calibrated 1 GHz to 20 GHz
Method: “Dielectric Constant” means the dielectric constant as measured in accordance with ASTM D150-11 statically and at room temperature.
as §1

[3] = Source text: This is experimentally determined where a liquid spill is simulated by pouring the liquid of interest into a watch glass. The flammability of, primarily, a single component or a blend is characterized throughout the evaporation of the puddle to dryness. […] The watch glass test is a conservative test because no external heat is applied to the watch glass, which is chilled by the evaporating solvent. The cold watch glass acts as a condenser for the vapors of higher boiling point blend components. In the case where a flammable component is high boiling, its concentration increases throughout the evaporation time, rendering the mixture more flammable than it would be under temperature-controlled blend segregation experiments.
This was experimentally determined where a liquid spill was simulated by pouring HFO-1336pyy(Z) into a watch glass. The flammability was characterized throughout the evaporation of the puddle to dryness.

SMILES	Bp [1]	BP [1]	Dielectric Constant (Dk) [2]	Dk [2]	flammability (flame on open flame passed across liquid surface) [3]
F/C(=C(\F)C(F)F)C(F)F [Compound 1, (Z)-1,1,2,3,4,4-hexafluorobut-2-ene]	58.2 °C	58.2 °C	6.72	6.72	
F/C(=C(/F)C(F)F)C(F)F [Compound 2, (E)-1,1,2,3,4,4-hexafluorobut-2-ene]	51.7 °C	51.7 °C	4.34	4.34	no flame was observed
F/C=C(/F)C(F)(F)C(F)F [Compound 4, (E)-1,2,3,3,4,4-hexafluorobut-1-ene]	45.3 °C	45.3 °C	5.09	5.09	no flame was observed
F/C=C(\F)C(F)(F)C(F)F [Compound 3, (Z)-1,2,3,3,4,4-hexafluorobut-1-ene]	40.4 °C	40.4 °C			no flame is observed
